Patent US12098176B2, “Keratin BD-4, preparation method, and pharmaceutical composition and use thereof” (Institute of Materia Medica, Chinese Academy of Medical …, priority 2019, dated 2024)
Where a name gives a salt, the structure may show the parent alone. Marks after values point to notes of the source that are not given here.

Tests used:
[1] = test system: mice cough induced by ammonia water; test: Antitussive test, cough induced by ammonia water in mice; type: in vivo, mouse
Method: Experimental example 6 The effect of protein BD-4 (Example 4 protein) on the antitussive effect of the cough induced by ammonia water in mice. Animals: male ICR mice; Drugs and reagents: dextromethorphan hydrobromide, ammonia, 0.2% CMC-Na, protein BD-4; Apparatus: Compressed nebulizer (403T type), balance (XS105DU type). Experiment Grouping: • Solvent control group; • Dextromethorphan 15 mg/kg group; • Protein BD-4, 20 mg/kg group, 50 mg/kg group. Method: Model Preparation and Administration:
Dextromethorphan and different doses of protein BD-4 (administration volume 10 ml/kg) were given orally in groups, and the solvent control group was given the same volume of distilled water. One hour later, it was put into a sealed box and atomized 10% ammonia water for 10 seconds, and then observed and recorded the incubation period of cough in mice and the number of coughs in 2 minutes.
Record the time point of oral administration, the time point of atomization experiment, the incubation period of mice cough and the number of coughs within 2 minutes, respectively. The incubation period of cough refers to the number of seconds from the start of the atomization of ammonia to the occurrence of cough. The performance of coughing in mice is based on contraction of their abdominal muscles (breast contraction) and opening their mouths at the same time. Calculate the mean and standard error of each group of data, use TTEST to compare the model group with other groups, and P<0.05 is considered as a significant difference.

[2] = test system: acetic acid writhing of ICR mice; test: Acetic acid writhing test in ICR mice; type: in vivo, mouse
Method: Experimental example 7 The pharmacodynamic test of protein BD-4 (Example 4 protein) on acetic acid writhing in ICR mice. Animals: male ICR mice; Drugs and reagents: aspirin, physiological saline, glacial acetic acid, protein BD-4. Experiment Grouping:
One day after the experimental animals adapt to the environment, Aspirin 300 mg/kg, protein BD-4 50 mg/kg, 200 mg/kg were given orally one hour in advance, and the administration volume was 10 ml/kg; Then, 0.6% acetic acid solution was injected into the abdominal cavity, and the latency period (seconds) and frequency of writhing in the animal was observed within 15 minutes.
Calculate the mean and standard error of the data in each group. Compared with the model group by TTEST, P<0.05 was considered as statistically different.
0.6% acetic acid solution was injected into the abdominal cavity of mice, which caused deep and large area and long-term painful stimulation, causing the mice to writhe (the abdomen was contracted into an “S” shape, the trunk and hind legs were stretched, the buttocks were raised and the hips Row). The incubation time and the number of times the mice began to writhe were used as the pain response index to determine whether the test sample had analgesic effect. […] Compared with the model group, P<0.05, which is statistically significant.

[3] = test system: yeast-induced fever model in rats; test: Yeast-induced fever model in SD rats; type: in vivo, rat
Method: Experimental example 1 The pharmacodynamic test of protein BD-4 (the protein in Example 4) on the fever model of SD rats induced by yeast
• Normal control group; • Model group: yeast fever model; • Positive control group: Aspirin 300 mg/kg group; • Protein BD-4, 10 mg/kg group, 50 mg/kg group. Method:
(§1) Preparation of experimental animals: After the experimental animals adapt to the experimental environment (temperature 22° C.±2° C., relative humidity 50%±2%) for 1 day. Pre-adaptation to measure rectal temperature at 8:00 and 15:00, Rats were fasted and water was taken freely 12 h before experiment. let the animal to empty its feces before measuring the rectal temperature. Apply petroleum jelly to the electronic thermometer probe before each temperature measurement. Insert the rat rectum 2 cm (can be marked at 2 cm to ensure that the depth of each insertion is consistent), and record the body temperature after the reading is stable.
(§2) Subcutaneous injection of dry yeast to replicate rat fever model: The body temperature of the rats was measured before modeling. Qualified rats with a body temperature of 36.2-37.3° C. were selected and randomly divided into groups with 8 rats in each group. After oral administration of aspirin and different doses of protein BD-4, 20% yeast suspension (10 ml/kg) was injected subcutaneously immediately, and the normal control group was injected intraperitoneally with an equal volume of normal saline. the rats' body temperature was monitored after 2 hours for a total of 8 hours.
(§3) According to the body temperature measured at each time point on the day of the experiment, calculate the mean, standard deviation and standard error of the body temperature of each group of rats. The data of each group was compared with TTEST, and P<0.05 was considered as a significant difference.

[4] = test system: lipopolysaccharide (LPS) induced fever in rats; test: Lipopolysaccharide (LPS) induced fever in SD rats; type: in vivo, rat
Method: Experimental example 2 The pharmacodynamic test of protein BD-4 (Example 4 protein) on lipopolysaccharide (LPS) induced fever in SD rats.
Experiment Grouping: • Model group: lipopolysaccharide fever model; • Positive control group: Aspirin 300 mg/kg group, • Protein BD-4, 10 mg/kg group, 50 mg/kg group. Method: the method of intraperitoneal injection of Lipopolysaccharide to create fever model in rats.
as §1, with “experiment. before the experiment,” for “experiment.”
as §2, with “Intraperitoneal” for “Subcutaneous”, “lipopolysaccharide” for “dry yeast”, “lipopolysaccharide (20 μg/kg, 2” for “20% yeast suspension (10”, “intraperitoneally” for “subcutaneously”
as §3

[5] = test system: PLO-induced epilepsy in mice; test: Pilocarpine (PLO) induced convulsive epilepsy in mice; type: in vivo, mouse; settings: Diazepam 2 mg/kg
Method: Experimental example 3 The pharmacodynamic test of protein BD-4 (Example 4 protein) on convulsive epilepsy in mice caused by the convulsion agent Pilocarpine (PLO)
Model group: • Diazepam (Diazepam) 2 mg/kg group; • Protein BD-4, 50 mg/kg group, 200 mg/kg group. Method: Model Preparation and Administration:
The drug was administered once in the afternoon the day before modeling, PLO-225 mg/kg (modeling agent) was injected intraperitoneally 1 hour after the test drug was given to the stomach on the day of modeling. And positive drug can be administered once 20 minutes before modeling. Observe for 30 minutes after PLO injection.
Observation indicators: 1) Seizure situation: the time of seizures from grade II to grade IV; 2) the time to death.
Attack level: Refer to Racine grading standard: Level 0: No response; Grade I: manifested as twitching of facial muscles or the corners of the mouth; Level II: can nod; Level III: Twitching of one limb; Grade IV: rigidity or body twitching; Grade V: generalized epilepsy (generalized tonic seizures).
Count the number of grade IV seizures and deaths in each group of mice in the experiment; Level II, III and IV incubation period. […] Chi-square test was used for statistics of the number of cases. The mean value and standard error of the incubation period were calculated, and TTEST was used to compare the model group with other groups. P<0.05 was considered as a significant difference.

[6] = test system: PTZ-induced epilepsy in mice; test: Pentylenetetrazole (PTZ) induced epilepsy in mice; type: in vivo, mouse; settings: Retigabine 60 mg/kg
Method: Experiment Grouping: • Model group; • Retigabine 60 mg/kg group; • Protein BD-4, 50 mg/kg group, 200 mg/kg group; Method: Model Preparation and Administration:
Administer once in the afternoon the day before modeling, On the day of modeling, intraperitoneal injection of PTZ-65 mg/kg (modeling agent) 1 hour after gavage of the test drug, the positive drug can be administered once half an hour before modeling. Continue to observe for 15 minutes after injection of PTZ.
Observation index: 1) Seizure condition: Onset time of grade III to grade VI; 2) Death situation
Onset level: Refer to Racine grading standard: Level 0: No response; Grade I: manifested as twitching of facial muscles or the corners of the mouth; Level II: Can nod; Grade III: twitching of one limb; Grade IV: Rigidity or body twitching; Grade V: Generalized epilepsy (Generalized tonic seizures).
Count the number of seizures and deaths in each group of mice in the experiment; Level III and IV incubation period. The incubation period of mice that have not attacked to grade IV is recorded as the maximum of 900 seconds. Chi-square test was used for statistics of the number of cases. Calculate the mean and standard error of the incubation period. Use TTEST to compare the model group with other groups, and P<0.05 is considered as a significant difference.

[7] = dextromethorphan 15 mg/kg, P<0.05
[8] = aspirin 300 mg/kg oral, 0.6% acetic acid i.p., within 15 minutes

Question: What does the source list for `COc1ccc2c(c1)[C@]13CCCC[C@@H]1[C@H](C2)N(C)CC3` [Dextromethorphan, dextromethorphan hydrobromide, reference compound]?
Answer: Incubation period ([1]; Dextromethorphan 15 mg/kg oral, cough latency, X ± SEM): 39.2 ± 2.8 s; Number of coughs ([1]; Dextromethorphan 15 mg/kg oral, within 2 minutes, X ± SEM): 40.2 ± 3.5; Cough incubation period vs solvent control group [1, 7]: significant improvement; Number of coughs vs solvent control group [1, 7]: significant improvement

Question: For `CC(=O)Oc1ccccc1C(=O)O` [aspirin, reference compound], which “Frequency of writhing vs model group” value ([2]; Aspirin 300 mg/kg, P<0.05) is on record?
Answer: reduce the frequency of writhing

Question: What about the “Incubation period of writhing vs model group” value ([2]; Aspirin 300 mg/kg, P<0.05) of the same compound?
Answer: significantly delay the incubation period of writhing

Question: And the Number of twists [2, 8]?
Answer: 16.7 ± 2.6 times

Question: What about the Writhing latency [2, 8] of the same compound?
Answer: 301.0 ± 30.4 s

Question: What about the “Body temperature 2 hours after modeling” value ([3]; aspirin 300 mg/kg oral, 2 h after 20% yeast s.c.) of the same compound?
Answer: 36.5 ± 0.1 °C

Question: What about the “Body temperature 4 hours after modeling” value ([3]; aspirin 300 mg/kg oral, 4 h after 20% yeast s.c.) of the same compound?
Answer: 36.9 ± 0.1 °C

Question: What about the “Body temperature 6 hours after modeling” value ([3]; aspirin 300 mg/kg oral, 6 h after 20% yeast s.c.) of the same compound?
Answer: 37.0 ± 0.1 °C

Question: And the “Body temperature 8 hours after modeling” value ([3]; aspirin 300 mg/kg oral, 8 h after 20% yeast s.c.)?
Answer: 37.2 ± 0.1 °C

Question: And the “Effect on increase in body temperature of model rats” value ([3]; aspirin 300 mg/kg, 4, 6 and 8 hours after modeling, vs model group P<0.05)?
Answer: effectively inhibit the increase in body temperature

Question: And the “Body temperature 2 hours after modeling” value ([4]; aspirin 300 mg/kg oral, 2 h after LPS 20 μg/kg i.p.)?
Answer: 36.9 ± 0.2 °C

Question: And the “Body temperature 4 hours after modeling” value ([4]; aspirin 300 mg/kg oral, 4 h after LPS 20 μg/kg i.p.)?
Answer: 37.0 ± 0.1 °C

Question: And the “Body temperature 6 hours after modeling” value ([4]; aspirin 300 mg/kg oral, 6 h after LPS 20 μg/kg i.p.)?
Answer: 36.9 ± 0.1 °C

Question: What about the “Body temperature 8 hours after modeling” value ([4]; aspirin 300 mg/kg oral, 8 h after LPS 20 μg/kg i.p.) of the same compound?
Answer: 36.9 ± 0.1 °C

Question: And the “Effect on increase in body temperature of model rats” value ([4]; aspirin 300 mg/kg, 2, 4, 6 and 8 hours after modeling, vs model group P<0.05)?
Answer: effectively inhibit the increase in body temperature

Question: How did the “Grade IV seizure rate” value ([5]; 10 mice, PLO 225 mg/kg i.p.) turn out when `CN1C(=O)CN=C(c2ccccc2)c2cc(Cl)ccc21` [Diazepam, reference compound] was run?
Answer: 0**

Question: And the mortality rate ([5]; 10 mice, PLO 225 mg/kg i.p.)?
Answer: 0

Question: And the “Level II onset incubation period” value ([5]; mean ± SEM)?
Answer: 118 ± 9 s

Question: What about the “Level III onset incubation period” value ([5]; mean ± SEM) of the same compound?
Answer: 172 ± 13 s

Question: And the “Level IV onset incubation period” value ([5]; mean ± SEM, no grade IV attack recorded as 1800 s)?
Answer: 1800 ± 0 s

Question: And the Number of deaths ([5]; of 10 mice, PLO 225 mg/kg i.p.)?
Answer: 0

Question: What about the “Number of Grade IV cases” value ([5]; of 10 mice, PLO 225 mg/kg i.p., 30 min observation) of the same compound?
Answer: 0**

Question: Which results are given for `CCOC(=O)Nc1ccc(NCc2ccc(F)cc2)cc1N` [Retigabine, reference compound]?
Answer: Grade IV seizure rate ([6]; 10 mice, PTZ 65 mg/kg i.p.): 10%**; mortality rate ([6]; 10 mice, PTZ 65 mg/kg i.p.): 0; Level III onset latency ([6]; mean ± SEM): 106 ± 12 s; Grade IV onset latency ([6]; mean ± SEM, no grade IV attack recorded as 900 s): 819 ± 81 s; Number of deaths ([6]; of 10 mice, PTZ 65 mg/kg i.p.): 0; Number of Grade IV cases ([6]; of 10 mice, PTZ 65 mg/kg i.p., 15 min observation): 1**
